{"source": "paper PMC6954902", "about": "(Protein & Cell, 2019)", "key": {"MtEccC5-ATPase3": {"target": "T1, MtEccC5-ATPase3 (Mycobacterium tuberculosis, UniProt P9WNA5)", "T1 construct": "gene eccC5", "T1 sequence (P9WNA5 1125-1391)": "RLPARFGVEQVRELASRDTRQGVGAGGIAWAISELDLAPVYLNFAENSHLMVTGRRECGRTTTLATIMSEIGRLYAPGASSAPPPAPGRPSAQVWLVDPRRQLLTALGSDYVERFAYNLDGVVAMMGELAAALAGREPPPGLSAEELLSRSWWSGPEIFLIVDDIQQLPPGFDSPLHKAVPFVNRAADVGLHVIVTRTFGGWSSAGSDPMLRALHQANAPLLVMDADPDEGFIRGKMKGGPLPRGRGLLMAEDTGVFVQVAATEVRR"}, "MtEccC3-ATPase3": {"target": "T2, MtEccC3-ATPase3 (Mycobacterium tuberculosis, UniProt P9WNA9)", "T2 construct": "gene eccC3", "T2 sequence (P9WNA9 1060-1330)": "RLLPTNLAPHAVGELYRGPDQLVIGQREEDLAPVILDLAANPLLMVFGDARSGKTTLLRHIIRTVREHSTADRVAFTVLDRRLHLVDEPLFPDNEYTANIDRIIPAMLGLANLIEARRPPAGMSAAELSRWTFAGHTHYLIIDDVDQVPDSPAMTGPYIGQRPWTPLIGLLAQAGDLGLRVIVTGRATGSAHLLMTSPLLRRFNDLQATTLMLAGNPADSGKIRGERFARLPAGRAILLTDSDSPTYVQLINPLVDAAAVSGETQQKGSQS"}, "MtEccC2-ATPase3": {"target": "T3, MtEccC2-ATPase3 (Mycobacterium tuberculosis, UniProt O05450)", "T3 construct": "gene eccC2", "T3 sequence (O05450 1127-1396 limits assumed)": "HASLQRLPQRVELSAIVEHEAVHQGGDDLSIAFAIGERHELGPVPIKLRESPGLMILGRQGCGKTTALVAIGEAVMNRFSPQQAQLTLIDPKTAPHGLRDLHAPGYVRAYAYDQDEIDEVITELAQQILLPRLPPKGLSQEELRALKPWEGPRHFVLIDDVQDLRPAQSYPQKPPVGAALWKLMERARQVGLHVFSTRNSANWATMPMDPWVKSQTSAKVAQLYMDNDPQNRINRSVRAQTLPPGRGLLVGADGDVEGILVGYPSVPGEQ"}}}
{"molecule": "Nc1ncnc2c1ncn2[C@@H]1O[C@H](COP(=O)(O)OP(=O)(O)OP(=O)(O)O)[C@@H](O)[C@H]1O", "note": "[ATP]", "values": [{"measurement": "X-ray crystal structure", "setting": "MtEccC5-ATPase3", "result": "In our structures, ATP and a magnesium ion bind to the nucleotide-binding site"}, {"measurement": "X-ray crystal structure", "setting": "MtEccC3-ATPase3", "result": "In our structures, ATP and a magnesium ion bind to the nucleotide-binding site"}, {"measurement": "X-ray crystal structure", "setting": "MtEccC2-ATPase3", "result": "In our structures, ATP and a magnesium ion bind to the nucleotide-binding site"}]}
